Source: US11098041B2 (Merck Patent GmbH, priority 2014, dated 2021)

Experiments:
[1] = biological target: BTK C481S (His-TEV-hsBTK(328-659)(C481S)) (Homo sapiens (Human), UniProt Q06187, C481S); experiment: Assay B: microfluidic off-chip mobility shift assay against BTK C481S enzyme; format: biochemical; conditions: BTK C481S mutant
Outline: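 Substrate-to-phosphopeptide conversion quantified by microfluidic mobility shift with laser-induced fluorescence; IC50 and efficacy from log[inhibitor] vs. % activity.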

[2] = biological target: full-length human BTK (Homo sapiens (Human), UniProt Q06187); experiment: Assay A: microfluidic off-chip mobility shift assay against BTK enzyme; format: biochemical
[3] = test system: anti-IgM-induced expression of CD69 on CD19 positive cells (B cells) in human PBMCs; experiment: Assay C: PBMC IC50 assay (anti-IgM-induced CD69 expression); format: cell-based; conditions: anti-IgM stimulation
Outline: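 Freshly isolated human PBMCs (2.5×10^5/well) pretreated 1 h with compound, then stimulated overnight (~16-18 h) with goat F(ab′)2 anti-human IgM. CD69 on CD19+ B cells measured by flow cytometry; IC50 from percentage CD69+ B cells versus concentration.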

Chain of full-length human BTK (Q06187 whole entry): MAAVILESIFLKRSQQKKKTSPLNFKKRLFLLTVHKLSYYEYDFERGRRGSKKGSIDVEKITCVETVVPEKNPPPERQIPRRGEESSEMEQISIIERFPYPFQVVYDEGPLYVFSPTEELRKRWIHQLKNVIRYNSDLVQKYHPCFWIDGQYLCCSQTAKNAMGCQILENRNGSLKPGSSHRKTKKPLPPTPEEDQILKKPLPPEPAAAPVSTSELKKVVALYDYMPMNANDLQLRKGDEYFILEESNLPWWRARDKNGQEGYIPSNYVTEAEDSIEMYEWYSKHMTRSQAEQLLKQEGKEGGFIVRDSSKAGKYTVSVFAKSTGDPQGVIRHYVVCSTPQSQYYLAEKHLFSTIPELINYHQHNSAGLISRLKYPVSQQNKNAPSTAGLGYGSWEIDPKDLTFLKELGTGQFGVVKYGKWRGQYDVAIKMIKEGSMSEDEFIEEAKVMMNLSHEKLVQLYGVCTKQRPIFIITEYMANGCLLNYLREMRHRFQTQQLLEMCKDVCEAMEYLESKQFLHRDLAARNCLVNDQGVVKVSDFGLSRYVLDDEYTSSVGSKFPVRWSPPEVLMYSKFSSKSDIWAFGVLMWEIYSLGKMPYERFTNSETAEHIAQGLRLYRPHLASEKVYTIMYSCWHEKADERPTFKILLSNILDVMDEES
Chain of BTK C481S (His-TEV-hsBTK(328-659)(C481S)) (Q06187 328-659 C481S): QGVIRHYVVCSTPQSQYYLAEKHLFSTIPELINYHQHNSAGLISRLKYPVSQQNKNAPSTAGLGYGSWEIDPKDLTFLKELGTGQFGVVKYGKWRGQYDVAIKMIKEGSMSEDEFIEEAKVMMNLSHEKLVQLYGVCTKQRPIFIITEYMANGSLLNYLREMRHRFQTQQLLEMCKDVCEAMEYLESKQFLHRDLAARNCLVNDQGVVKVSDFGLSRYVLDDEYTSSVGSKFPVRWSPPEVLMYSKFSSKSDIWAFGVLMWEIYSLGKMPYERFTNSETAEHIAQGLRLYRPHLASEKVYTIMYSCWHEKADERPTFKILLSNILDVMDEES

IC50 [1]	IC50 [2]	SMILES	IC50 [3]
< 100 nM	< 100 nM	O=C1c2c(F)cc(C3CC3)cc2OCCN1c1cccc(-c2ccnc3[nH]c(-c4cccnc4)nc23)c1CO [Example 2, 8-Cyclopropyl-6-fluoro-4-[2-(hydroxymethyl)-3-[2-(pyridin-3-yl)-3H-imidazo[4,5-b]pyridin-7-yl]phenyl]-2,3,4,5-tetrahydro-1,4-benzoxazepin-5-one]	1000 to 5000 nM
< 100 nM	< 100 nM	CC(C)(C)c1nc(C(=O)NCc2ccc(-c3ccnc4[nH]c(-c5ccc(C(O)CO)cn5)nc34)cc2F)no1 (stereo not drawn) [Example 76, 5-tert-Butyl-N-[(4-[2-[5-(1,2-dihydroxyethyl)pyridin-2-yl]-3H-imidazo[4,5-b]pyridin-7-yl]-2-fluorophenyl)methyl]-1,2,4-oxadiazole-3-carboxamide]	< 100 nM
< 100 nM	< 100 nM	CC(C)(C)c1nnc(C(=O)NCc2ccc(-c3ccnc4[nH]c(C5=CCNCC5)nc34)cc2F)o1 [Example 140, 5-tert-Butyl-[1,3,4]oxadiazole-2-carboxylic acid 2-fluoro-4-[2-(1,2,3,6-tetrahydro-pyridin-4-yl)-3H-imidazo[4,5-b]pyridin-7-yl]-benzylamide]	1000 to 5000 nM
< 100 nM	< 100 nM	Cn1cc(-c2nc3c(-c4ccc(CN5CCOc6cc(C7CC7)cc(F)c6C5=O)c(F)c4)ccnc3[nH]2)cn1 [Example 34, 8-Cyclopropyl-6-fluoro-4-([2-fluoro-4-[2-(1-methyl-1H-pyrazol-4-yl)-3H-imidazo[4,5-b]pyridin-7-yl]phenyl]methyl)-2,3,4,5-tetrahydro-1,4-benzoxazepin-5-one]	100 to 1000 nM
< 100 nM	< 100 nM	Cn1cc(-c2nc3c(-c4ccc(CNC(=O)CCCC5CCCC5)c(F)c4)ccnc3[nH]2)cn1 [Example 16, 4-Cyclopentyl-N-{2-fluoro-4-[2-(1-methyl-1H-pyrazol-4-yl)-3H-imidazo[4,5-b]pyridin-7-yl]-benzyl}-butyramide]	> 5000 nM
100 to 1000 nM	< 100 nM	CC(C)(C)c1nc(C(=O)NCc2ccc(-c3ccnc4[nH]c(-c5cnn(CCN)c5)nc34)cc2F)no1 [Example 72, N-[(4-[2-[1-(2-aminoethyl)-1H-pyrazol-4-yl]-3H-imidazo[4,5-b]pyridin-7-yl]-2-fluorophenyl)methyl]-5-tert-butyl-1,2,4-oxadiazole-3-carboxamide]	100 to 1000 nM
< 100 nM	< 100 nM	CN1CCN(c2ccc(-c3nc4c(-c5ccc(CNC(=O)c6noc(C(C)(C)C)n6)c(F)c5)ccnc4[nH]3)nc2)CC1 [Example 79, 5-tert-Butyl-N-[(2-fluoro-4-[2-[5-(4-methylpiperazin-1-yl)pyridin-2-yl]-3H-imidazo[4,5-b]pyridin-7-yl]phenyl)methyl]-1,2,4-oxadiazole-3-carboxamide]	< 100 nM
< 100 nM	< 100 nM	CN(C)c1nc(C(=O)NCc2ccc(-c3ccnc4[nH]c(-c5cnn(C)c5)nc34)cc2F)no1 [Example 57, 5-(Dimethylamino)-N-(2-fluoro-4-(2-(1-methyl-1H-pyrazol-4-yl)-3H-imidazo[4,5-b]pyridin-7-yl)benzyl)-1,2,4-oxadiazole-3-carboxamide 2,2,2-trifluoroacetate]	1000 to 5000 nM
< 100 nM	< 100 nM	CCn1cc(-c2nc3c(-c4ccc(CNC(=O)c5cc6c(s5)CCCC6)c(F)c4)ccnc3[nH]2)cn1 [Example 130, 4,5,6,7-Tetrahydro-benzo[b]thiophene-2-carboxylic acid 4-[2-(1-ethyl-1H-pyrazol-4-yl)-3H-imidazo[4,5-b]pyridin-7-yl]-2-fluoro-benzylamide]	100 to 1000 nM
< 100 nM	< 100 nM	CC(C)(C)c1ccc(C(=O)NCc2ccc(-c3ccnc4[nH]c(-c5ccc(C6=CCNCC6)cc5)nc34)cc2F)cc1 [Example 66, 4-tert-Butyl-N-[(2-fluoro-4-[2-[4-(1,2,3,6-tetrahydropyridin-4-yl)phenyl]-3H-imidazo[4,5-b]pyridin-7-yl]phenyl)methyl]benzamide]	100 to 1000 nM
< 100 nM	< 100 nM	Cn1cc(-c2nc3c(-c4ccc(CNC(=O)CCCC(C)(C)C)c(F)c4)ccnc3[nH]2)cn1 [Example 14, 5,5-Dimethyl-hexanoic acid 2-fluoro-4-[2-(1-methyl-1H-pyrazol-4-yl)-3H-imidazo[4,5-b]pyridin-7-yl]-benzylamide]	1000 to 5000 nM
< 100 nM	< 100 nM	Cn1cc(-c2nc3c(-c4cccc(NC(=O)c5cc6c(s5)CCCC6)c4CO)ccnc3[nH]2)cn1 [Example 50, N-[2-(hydroxymethyl)-3-[2-(1-methyl-1H-pyrazol-4-yl)-3H-imidazo[4,5-b]pyridin-7-yl]phenyl]-4,5,6,7-tetrahydro-1-benzothiophene-2-carboxamide]	100 to 1000 nM
< 100 nM	< 100 nM	Cn1cc(-c2nc3c(-c4ccc(CNC(=O)c5noc(C(C)(C)N)n5)c(F)c4)ccnc3[nH]2)cn1 [Example 58, 5-(2-Aminopropan-2-yl)-N-([2-fluoro-4-[2-(1-methyl-1H-pyrazol-4-yl)-3H-imidazo[4,5-b]pyridin-7-yl]phenyl]methyl)-1,2,4-oxadiazole-3-carboxamide]	1000 to 5000 nM
100 to 1000 nM	< 100 nM	CN(C)c1ccc(-c2nc3c(-c4ccc(C5(NC(=O)c6ccc(C(C)(C)C)cc6)CC5)cc4)ccnc3[nH]2)nc1 [Example 54, 4-tert-Butyl-N-[1-(4-[2-[5-(dimethylamino)pyridin-2-yl]-3H-imidazo[4,5-b]pyridin-7-yl]phenyl)cyclopropyl]benzamide]	100 to 1000 nM
< 100 nM	< 100 nM	CN(C)c1ccc(-c2nc3c(-c4cccc(N5CCOc6cc(C7CC7)cc(F)c6C5=O)c4CO)ccnc3[nH]2)nc1 [Example 41, 8-cyclopropyl-4-(3-[2-[5-(dimethylamino)pyridin-2-yl]-3H-imidazo[4,5-b]pyridin-7-yl]-2-(hydroxymethyl)phenyl)-6-fluoro-2,3,4,5-tetrahydro-1,4-benzoxazepin-5-one]	1000 to 5000 nM
< 100 nM	< 100 nM	Cn1cc(-c2nc3c(-c4cc(F)cc(N5CCn6c(cc7c6CC(C)(C)C7)C5=O)c4CO)ccnc3[nH]2)cn1 [Example 10, 2-(5-fluoro-2-(hydroxymethyl)-3-(2-(1-methyl-1H-pyrazol-4-yl)-3H-imidazo[4,5-b]pyridin-7-yl)phenyl)-7,7-dimethyl-2,3,4,6,7,8-hexahydro-1H-cyclopenta[4,5]pyrrolo[1,2-a]pyrazin-1-one]	< 100 nM
< 100 nM	< 100 nM	CN(C)c1ccc(-c2nc3c(-c4ccc(CNC(=O)c5ccc(C(C)(C)C)cc5)c(F)c4)ccnc3[nH]2)nc1 [Example 89, 4-tert-Butyl-N-[(4-[2-[5-(dimethylamino)pyridin-2-yl]-3H-imidazo[4,5-b]pyridin-7-yl]-2-fluorophenyl)methyl]benzamide]	1000 to 5000 nM
100 to 1000 nM	100 to 1000 nM	O=C(NCc1ccc(-c2ccnc3[nH]c(-c4cnn(CCN5CCOCC5)c4)nc23)cc1F)c1nnc(C2CCOCC2)o1 [Example 122, 5-(Tetrahydro-pyran-4-yl)-[1,3,4]oxadiazole-2-carboxylic acid 2-fluoro-4-{2-[1-(2-morpholin-4-yl-ethyl)-1H-pyrazol-4-yl]-3H-imidazo[4,5-b]pyridin-7-yl}-benzylamide]	> 5000 nM
< 100 nM	< 100 nM	CN1CC=C(c2ccc(-c3nc4c(-c5ccc(CNC(=O)c6noc(C(C)(C)C)n6)c(F)c5)ccnc4[nH]3)cc2)CC1 [Example 86, 5-tert-Butyl-N-[(2-fluoro-4-[2-[4-(1-methyl-1,2,3,6-tetrahydropyridin-4-yl)phenyl]-3H-imidazo[4,5-b]pyridin-7-yl]phenyl)methyl]-1,2,4-oxadiazole-3-carboxamide; Trifluoroacetic Acid]	< 100 nM
< 100 nM	< 100 nM	Cc1cc(CNC(=O)c2noc(C(C)(C)C)n2)c(F)cc1-c1ccnc2[nH]c(-c3cnn(C)c3)nc12 [Example 77, 5-tert-butyl-N-([2-fluoro-5-methyl-4-[2-(1-methyl-1H-pyrazol-4-yl)-3H-imidazo[4,5-b]pyridin-7-yl]phenyl]methyl)-1,2,4-oxadiazole-3-carboxamide]	1000 to 5000 nM
< 100 nM	< 100 nM	CN1CC=C(c2nc3c(-c4ccc(CNC(=O)c5nnc(C(C)(C)C)o5)c(F)c4)ccnc3[nH]2)CC1 [Example 139, 5-tert-Butyl-[1,3,4]oxadiazole-2-carboxylic acid 2-fluoro-4-[2-(1-methyl-1,2,3,6-tetrahydro-pyridin-4-yl)-3H-imidazo[4,5-b]pyridin-7-yl]-benzylamide]	1000 to 5000 nM
< 100 nM	< 100 nM	Cn1cc(-c2nc3c(-c4ccc(CN5Cc6cc(C7CC7)sc6C5=O)c(F)c4)ccnc3[nH]2)cn1 [Example 93, 2-Cyclopropyl-5-([2-fluoro-4-[2-(1-methyl-1H-pyrazol-4-yl)-3H-imidazo[4,5-b]pyridin-7-yl]phenyl]methyl)-4H,5H,6H-thieno[2,3-c]pyrrol-6-one]	100 to 1000 nM
< 100 nM	< 100 nM	Cn1cc(-c2nc3c(-c4cccc(NC(=O)c5ccc(C6CC6)nc5)c4CO)ccnc3[nH]2)cn1 [Example 49, 6-Cyclopropyl-N-[2-(hydroxymethyl)-3-[2-(1-methyl-1H-pyrazol-4-yl)-3H-imidazo[4,5-b]pyridin-7-yl]phenyl]pyridine-3-carboxamide]	100 to 1000 nM
